Results reported in patent US10131652B2, “Pyrimidinyloxy benzene derivatives as herbicides” (E. I. DU PONT DE NEMOURS AND COMPANY, priority 2014, dated 2018).

Key:
Assay type in all cases: in vivo
[1] = test system: Italian ryegrass (Lolium multiflorum); assay: Test B pre-/postemergence plant response
In short: (§1)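 Evaluation is visual, about 10 days after application, rating injury from 0 (none) to 100 (complete control) relative to untreated controls. Application was a preemergence soil spray on seeded pots or a postemergence spray on one- to two-leaf plants.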

[2] = test system: barnyardgrass (Echinochloa crus-galli); assay: Test B pre-/postemergence plant response
In short: as §1

[3] = test system: ragweed (common ragweed, Ambrosia elatior); assay: Test B pre-/postemergence plant response
In short: as §1

corn (Zea mays) = assay: Test B pre-/postemergence plant response
In short: as §1

[4] = test system: wheat (Triticum aestivum); assay: Test B pre-/postemergence plant response
In short: as §1

[5] = test system: pigweed (Amaranthus retroflexus); assay: Test B pre-/postemergence plant response
In short: as §1

kochia (Kochia scoparia) = assay: Test B pre-/postemergence plant response
In short: as §1

[6] = test system: giant foxtail (Setaria faberii); assay: Test B pre-/postemergence plant response
In short: as §1

[7] = test system: barnyardgrass (Echinochloa crus-galli); assay: Test C flooded paddy test plant response; conditions: Flood, 250 g ai/ha; scale of 0 to 100 where 0 is no effect and 100 is complete control; 13 to 15 days
In short: (§2)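 2-leaf plants; flood 3 cm, cpd into paddy water; greenhouse 13–15 d; visual score vs untreated, 0 = no effect, 100 = complete control; dash = no result.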

rice (Oryza sativa) = assay: Test C flooded paddy test plant response; conditions: Flood, 250 g ai/ha; scale of 0 to 100 where 0 is no effect and 100 is complete control; 13 to 15 days
In short: as §2

[8] = test system: ducksalad (Heteranthera limosa); assay: Test C flooded paddy test plant response; conditions: Flood, 250 g ai/ha; scale of 0 to 100 where 0 is no effect and 100 is complete control; 13 to 15 days
In short: as §2

[9] = test system: small-flower umbrella sedge (Cyperus difformis); assay: Test C flooded paddy test plant response; conditions: Flood, 250 g ai/ha; scale of 0 to 100 where 0 is no effect and 100 is complete control; 13 to 15 days
In short: as §2

[10] = test system: galium (catchweed bedstraw, Galium aparine); assay: Test B postemergence plant response
In short: (§3)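 Values are visual control ratings (0 to 100) recorded approximately 10 days after postemergence application to greenhouse-grown plants of 2 to 10 cm, one- to two-leaf stage, each judged against untreated controls.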

[11] = test system: blackgrass (Alopecurus myosuroides); assay: Test B postemergence plant response
In short: as §3

[12] = 125 g ai/ha, postemergence, 0 to 100 scale, 0 no effect, 100 complete control
[13] = Postemergence, 500 g ai/ha, 0 to 100 scale (0 no effect, 100 complete control)
[14] = Preemergence, 125 g ai/ha, 0 to 100 scale (0 no effect, 100 complete control)
[15] = Preemergence, 500 g ai/ha, 0 to 100 scale where 0 is no effect and 100 is complete control
[16] = 31 g ai/ha, Postemergence, 0 to 100 scale, 0 no effect, 100 complete control
[17] = 31 g ai/ha, Preemergence, 0 to 100 scale where 0 is no effect and 100 is complete control
[18] = Preemergence, 125 g ai/ha, 0 to 100 scale where 0 is no effect and 100 is complete control
[19] = Postemergence, 31 g ai/ha, 0 to 100 scale (0 no effect, 100 complete control)

FC(F)(F)c1csc(-c2ccccc2Oc2ncc(I)cn2)n1 [Compound 138]
Plant response rating, Ryegrass, Italian [1, 12]: 0
Plant response rating, Ryegrass, Italian [1, 13]: 0
Ryegrass, Italian plant response rating [1, 14]: 0
Plant response rating, Ryegrass, Italian [1, 15]: 0
Plant response rating, Barnyardgrass [2, 12]: 0
Plant response rating, Barnyardgrass [2, 13]: 0
Barnyardgrass plant response rating [2, 14]: 0
Plant response rating, Barnyardgrass [2, 15]: 0
Plant response rating, Ragweed [3, 12]: 0
Plant response rating, Ragweed [3, 13]: 0
Ragweed plant response rating [3, 14]: 0
Plant response rating, Ragweed [3, 15]: 0
Plant response rating, Corn (corn (Zea mays); [12]): 0
Plant response rating, Corn (corn (Zea mays); [13]): 0
Plant response rating, Wheat [4, 12]: 0
Plant response rating, Wheat [4, 13]: 0
Plant response rating, Pigweed [5, 12]: 0
Plant response rating, Pigweed [5, 13]: 0
Pigweed plant response rating [5, 14]: 0
Plant response rating, Pigweed [5, 15]: 0
Plant response rating, Kochia (kochia (Kochia scoparia); [12]): 0
Plant response rating, Kochia (kochia (Kochia scoparia); [13]): 0
Kochia plant response rating (kochia (Kochia scoparia); [14]): 0
Plant response rating, Kochia (kochia (Kochia scoparia); [15]): 0
Plant response rating, Foxtail, Giant [6, 12]: 0
Plant response rating, Foxtail, Giant [6, 13]: 0
Foxtail, Giant plant response rating [6, 14]: 0
Plant response rating, Foxtail, Giant [6, 15]: 0
Barnyardgrass plant response rating [7]: 0
Rice plant response rating (rice (Oryza sativa)): 0
Ducksalad plant response rating [8]: 20
Sedge, Umbrella plant response rating [9]: 0
Plant response rating, Galium [10, 12]: 0
Plant response rating, Galium [10, 13]: 0
Plant response rating, Blackgrass [11, 12]: 0
Plant response rating, Blackgrass [11, 13]: 0

COc1cccc(Oc2ncc(Cl)cn2)c1-c1cc(C(F)F)on1 [Compound 109]
Plant response rating, Ryegrass, Italian [1, 16]: 10
Plant response rating, Ryegrass, Italian [1, 17]: 0
Plant response rating, Ryegrass, Italian [1, 12]: 50
Plant response rating, Ryegrass, Italian [1, 18]: 10
Plant response rating, Barnyardgrass [2, 16]: 60
Plant response rating, Barnyardgrass [2, 17]: 40
Plant response rating, Barnyardgrass [2, 12]: 90
Plant response rating, Barnyardgrass [2, 18]: 100
Plant response rating, Ragweed [3, 16]: 60
Plant response rating, Ragweed [3, 17]: 20
Plant response rating, Ragweed [3, 12]: 90
Plant response rating, Ragweed [3, 18]: 70
Plant response rating, Corn (corn (Zea mays); [16]): 10
Plant response rating, Corn (corn (Zea mays); [12]): 60
Plant response rating, Wheat [4, 16]: 0
Plant response rating, Wheat [4, 12]: 10
Plant response rating, Pigweed [5, 16]: 80
Plant response rating, Pigweed [5, 17]: 90
Plant response rating, Pigweed [5, 12]: 100
Plant response rating, Pigweed [5, 18]: 100
Plant response rating, Kochia (kochia (Kochia scoparia); [16]): 0
Plant response rating, Kochia (kochia (Kochia scoparia); [17]): 0
Plant response rating, Kochia (kochia (Kochia scoparia); [12]): 30
Plant response rating, Kochia (kochia (Kochia scoparia); [18]): 30
Plant response rating, Foxtail, Giant [6, 16]: 60
Plant response rating, Foxtail, Giant [6, 17]: 80
Plant response rating, Foxtail, Giant [6, 12]: 90
Plant response rating, Foxtail, Giant [6, 18]: 100
Barnyardgrass plant response rating [7]: 30
Rice plant response rating (rice (Oryza sativa)): 35
Ducksalad plant response rating [8]: 85
Sedge, Umbrella plant response rating [9]: 80
Plant response rating, Galium [10, 16]: 50
Plant response rating, Galium [10, 12]: 100
Plant response rating, Blackgrass [11, 16]: 50
Plant response rating, Blackgrass [11, 12]: 90

FC(F)(F)COCc1cc(-c2ccccc2Oc2ncc(Br)cn2)on1 [Compound 129]
Plant response rating, Ryegrass, Italian [1, 17]: 0
Plant response rating, Ryegrass, Italian [1, 12]: 0
Ryegrass, Italian plant response rating [1, 14]: 0
Plant response rating, Barnyardgrass [2, 16]: 0
Plant response rating, Barnyardgrass [2, 17]: 0
Plant response rating, Barnyardgrass [2, 12]: 10
Barnyardgrass plant response rating [2, 14]: 0
Plant response rating, Ragweed [3, 17]: 0
Plant response rating, Ragweed [3, 12]: 0
Ragweed plant response rating [3, 14]: 0
Plant response rating, Corn (corn (Zea mays); [16]): 0
Plant response rating, Corn (corn (Zea mays); [12]): 10
Plant response rating, Wheat [4, 12]: 0
Plant response rating, Pigweed [5, 17]: 0
Plant response rating, Pigweed [5, 12]: 30
Pigweed plant response rating [5, 14]: 0
Plant response rating, Kochia (kochia (Kochia scoparia); [17]): 0
Plant response rating, Kochia (kochia (Kochia scoparia); [12]): 10
Kochia plant response rating (kochia (Kochia scoparia); [14]): 0
Plant response rating, Foxtail, Giant [6, 16]: 0
Plant response rating, Foxtail, Giant [6, 17]: 0
Plant response rating, Foxtail, Giant [6, 12]: 10
Foxtail, Giant plant response rating [6, 14]: 0
Barnyardgrass plant response rating [7]: 0
Rice plant response rating (rice (Oryza sativa)): 0
Ducksalad plant response rating [8]: 0
Sedge, Umbrella plant response rating [9]: 0
Plant response rating, Galium [10, 12]: 10
Plant response rating, Blackgrass [11, 16]: 0
Plant response rating, Blackgrass [11, 12]: 0

Fc1cnc(Oc2ccccc2-c2cc(C(F)F)no2)nc1 [Compound 210]
Plant response rating, Ryegrass, Italian [1, 17]: 0
Plant response rating, Ryegrass, Italian [1, 12]: 0
Plant response rating, Ryegrass, Italian [1, 19]: 0
Ryegrass, Italian plant response rating [1, 14]: 10
Plant response rating, Barnyardgrass [2, 17]: 10
Plant response rating, Barnyardgrass [2, 12]: 0
Plant response rating, Barnyardgrass [2, 19]: 0
Barnyardgrass plant response rating [2, 14]: 80
Plant response rating, Ragweed [3, 17]: 0
Plant response rating, Ragweed [3, 12]: 30
Plant response rating, Ragweed [3, 19]: 10
Ragweed plant response rating [3, 14]: 20
Plant response rating, Corn (corn (Zea mays); [12]): 10
Plant response rating, Corn (corn (Zea mays); [19]): 0
Plant response rating, Wheat [4, 12]: 20
Plant response rating, Wheat [4, 19]: 0
Plant response rating, Pigweed [5, 17]: 100
Plant response rating, Pigweed [5, 12]: 80
Plant response rating, Pigweed [5, 19]: 50
Pigweed plant response rating [5, 14]: 100
Plant response rating, Kochia (kochia (Kochia scoparia); [17]): 50
Plant response rating, Kochia (kochia (Kochia scoparia); [12]): 80
Plant response rating, Kochia (kochia (Kochia scoparia); [19]): 50
Kochia plant response rating (kochia (Kochia scoparia); [14]): 90
Plant response rating, Foxtail, Giant [6, 17]: 40
Plant response rating, Foxtail, Giant [6, 12]: 40
Plant response rating, Foxtail, Giant [6, 19]: 0
Foxtail, Giant plant response rating [6, 14]: 90
Barnyardgrass plant response rating [7]: 0
Rice plant response rating (rice (Oryza sativa)): 0
Ducksalad plant response rating [8]: 85
Sedge, Umbrella plant response rating [9]: 40
Plant response rating, Galium [10, 12]: 90
Plant response rating, Galium [10, 19]: 50
Plant response rating, Blackgrass [11, 12]: 30
Plant response rating, Blackgrass [11, 19]: 10
